Data as given in patent publication US8476253B2, “Amide derivative” (Daiichi Sankyo Company, Limited, priority 2009, dated 2013).
Where a name gives a salt, the structure may show the parent alone. Read-outs that look alike come from different tables or passages of the source.

Columns and labels:
[1] = molecular target: T1, neurokinin NK2 receptor (Cavia porcellus, UniProt Q64077); test: Effect of suppressing neurokinin A-induced airway contraction (in vivo, intratracheal administration); design: species or system guinea pig; conditions: guinea pigs, intratracheal administration 60 minutes before 4 μg/kg i.v. NKA, AUC of increase in airway pressure over 10 minutes; for ED50: guinea pig, read-out: ID50 (the source's name)
T1 construct: Using healthy guinea pigs (body weight, 350 to 550 g; Hartley male guinea pigs); from tissue; host or cells: live anaesthetised Hartley male guinea pigs (airway, in vivo)
T1 sequence (Q64077 1-402): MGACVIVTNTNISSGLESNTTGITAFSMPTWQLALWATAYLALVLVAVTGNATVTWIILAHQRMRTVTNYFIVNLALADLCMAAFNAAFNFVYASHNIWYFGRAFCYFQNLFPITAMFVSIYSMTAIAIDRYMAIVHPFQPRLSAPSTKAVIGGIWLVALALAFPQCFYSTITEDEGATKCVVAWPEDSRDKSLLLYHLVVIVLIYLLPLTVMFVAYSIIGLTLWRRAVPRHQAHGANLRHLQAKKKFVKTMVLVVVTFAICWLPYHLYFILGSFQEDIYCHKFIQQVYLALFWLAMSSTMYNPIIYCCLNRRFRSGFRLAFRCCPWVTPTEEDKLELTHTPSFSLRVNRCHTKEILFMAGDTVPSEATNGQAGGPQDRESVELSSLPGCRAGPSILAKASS
Method: (§1) Using healthy guinea pigs (body weight, 350 to 550 g; Hartley male guinea pigs), the effect of suppressing airway contraction induced by neurokinin A (NKA), which is an NK2 receptor agonist, was examined by a modified method of Konzett-Roessler (Naunyn-Schmiedebergs Arch. Exp. Pathol. Pharmakol. 195, 71 [1940]) using airway pressure as an indicator.
A tracheal cannula and a venous cannula were attached to a guinea pig anesthetized with pentobarbital (50 mg/mL solution, 0.40 to 0.50 mL/body, subcutaneous administration). An arterial cannula filled with heparin-containing physiological saline (100 U/mL) was further attached, and blood pressure and heart rate were monitored via an amplifier and an instantaneous heart rate meter. Subsequently, gallamine (20 mg/body, intravenous administration) was administered to terminate spontaneous breathing, and 10 mL/kg of positive pressure breathing (Ugo-Basile Biological Research Apparatus, Cat. No. 7025) was rapidly performed at 60 times/min. The airway pressure during artificial breathing was detected with a pressure transducer (TP-200T or TP-400T; Nihon Kohden Corporation) attached to a side branch of the tracheal cannula, amplified (AP-601G; Nihon Kohden Corporation), and recorded in a recorder. After the airway pressure, blood pressure, and heart rate were stabilized, 4 μg/kg of NKA was intravenously administered from the venous cannula to induce airway contraction, and the airway pressure was measured for the following 10 minutes.
The test substance was dissolved in a 5% glucose solution, and a 0.5 mL/kg solution was intratracheally administered with an intratracheal administration apparatus (model 1A-1B; Penn-Century, Inc.) 60 minutes before stimulation with NKA.
(§2) The AUC of increase in the airway pressure over 10 minutes after administration of NKA was determined as the intensity of NKA-induced airway contraction and calculated as an ID50 value from the inhibition rate based on the value of the control group (5% glucose solution intratracheal administration group).

[2] = molecular target: T2, neurokinin NK1 receptor (Cavia porcellus, UniProt P30547); test: Effect of suppressing substance P-induced airway contraction (in vivo, intratracheal administration); design: species or system guinea pig; conditions: guinea pigs, intratracheal administration 60 minutes before 20 μg/kg i.v. SP, AUC of increase in airway pressure over 10 minutes; for ED50: guinea pig, read-out: ID50 (the source's name)
T2 construct: Using healthy guinea pigs (body weight, 350 to 550 g; Hartley male guinea pigs); from tissue; host or cells: live anaesthetised Hartley male guinea pigs (airway, in vivo)
Method: as §1, with “substance P (SP),” for “neurokinin A (NKA),”, “NK1” for “NK2”
A tracheal cannula and a venous cannula were attached to a guinea pig anesthetized with pentobarbital (50 mg/mL solution, 0.40 to 0.50 mL/body, subcutaneous administration). An arterial cannula filled with heparin-containing physiological saline (100 U/mL) was further attached, and blood pressure and heart rate were monitored via an amplifier and an instantaneous heart rate meter. Subsequently, gallamine (20 mg/body, intravenous administration) was administered to terminate spontaneous breathing, and then 10 mL/kg of positive pressure breathing (Ugo-Basile Biological Research Apparatus, Cat. No. 7025) was rapidly performed at 60 times/min. The airway pressure during artificial breathing was detected with a pressure transducer (TP-200T or TP-400T; Nihon Kohden Corporation) attached to a side branch of the tracheal cannula, amplified (AP-601G; Nihon Kohden Corporation), and recorded in a recorder. After the airway pressure, blood pressure, and heart rate were stabilized, 20 μg/kg of SP was intravenously administered from the venous cannula to induce airway contraction, and the airway pressure was measured for the following 10 minutes.
The test substance was dissolved in a 5% glucose solution, a 0.5 mL/kg solution was intratracheally administered with an intratracheal administration apparatus (model 1A-1B; Penn-Century, Inc.) 60 minutes before stimulation with SP.
as §2, with “SP” for “NKA”, “SP-induced” for “NKA-induced”

[3] = molecular target: T3, human M3 receptor (Homo sapiens, UniProt P20309); test: Test for binding to human M3 receptor
T3 construct: expressed in transfected cells; host or cells: CHO cells
How it was run: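 CHO-cell crude membranes expressing human M3 were incubated with [N-methyl-3H]-(−)-scopolamine methyl chloride in 50 mM Tris-HCl, 0.5 mM EDTA, pH 7.4, for 60 min at room temperature. Bound ligand was collected on PEI-pretreated glass-fibre filters and counted by liquid scintillation. Ki was calculated from IC50 and the radioligand Kd.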

[4] = CHO cells expressing human M3 receptor, [N-methyl-3H]-(-)-Scopolamine methyl chloride 0.5 nM, Ki from IC50 and Kd, read-out: Ki

T3 sequence (P20309 whole entry): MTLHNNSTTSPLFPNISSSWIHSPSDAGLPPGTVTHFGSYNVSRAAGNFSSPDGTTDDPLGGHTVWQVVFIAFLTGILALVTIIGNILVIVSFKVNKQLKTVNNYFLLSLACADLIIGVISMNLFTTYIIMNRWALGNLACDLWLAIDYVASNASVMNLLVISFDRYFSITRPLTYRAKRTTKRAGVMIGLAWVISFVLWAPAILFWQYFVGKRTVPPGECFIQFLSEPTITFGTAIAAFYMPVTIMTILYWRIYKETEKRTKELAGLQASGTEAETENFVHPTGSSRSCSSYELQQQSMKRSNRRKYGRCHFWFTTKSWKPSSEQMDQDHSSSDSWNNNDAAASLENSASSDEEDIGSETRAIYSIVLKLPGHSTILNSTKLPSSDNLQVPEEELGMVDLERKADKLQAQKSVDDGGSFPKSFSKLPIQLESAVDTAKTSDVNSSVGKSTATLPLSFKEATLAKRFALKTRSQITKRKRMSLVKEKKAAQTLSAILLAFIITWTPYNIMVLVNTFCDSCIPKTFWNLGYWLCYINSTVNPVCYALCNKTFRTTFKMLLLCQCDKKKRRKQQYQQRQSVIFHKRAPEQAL
T2 sequence (P30547 whole entry): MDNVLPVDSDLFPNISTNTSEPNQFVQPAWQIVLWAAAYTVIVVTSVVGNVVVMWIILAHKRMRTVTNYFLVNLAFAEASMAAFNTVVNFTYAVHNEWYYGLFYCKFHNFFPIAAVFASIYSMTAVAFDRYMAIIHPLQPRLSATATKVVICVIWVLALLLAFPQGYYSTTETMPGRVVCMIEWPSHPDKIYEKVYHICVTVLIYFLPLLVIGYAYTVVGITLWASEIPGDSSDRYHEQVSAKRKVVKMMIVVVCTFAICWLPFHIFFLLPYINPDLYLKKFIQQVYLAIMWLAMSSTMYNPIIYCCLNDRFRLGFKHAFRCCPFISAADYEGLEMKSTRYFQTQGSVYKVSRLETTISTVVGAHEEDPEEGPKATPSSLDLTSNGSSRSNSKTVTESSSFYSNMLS

| SMILES | ED50 [1] [mg/kg] | ED50 [2] [mg/kg] | Ki [3, 4] [nM] | Ki [3] [nM] | ID50 [1] [mg/kg] | ID50 [2] [mg/kg] |
| --- | --- | --- | --- | --- | --- | --- |
| CN(CCN1CCC(OC(=O)Nc2ccccc2-c2ccccc2)CC1)C(=O)CCNc1ccc(C(=O)N(C)CCCN(C)C(=O)CO[C@H]2Cc3ccccc3C23CCN(CC[C@@]2(c4ccc(F)cc4)CN(C(=O)c4cc(C(F)(F)F)cc(C(F)(F)F)c4)CO2)CC3)cc1 [Example 94, 1-{2-[(N-{4-[{3-[({[(2S)-1′-{2-[(5R)-3-[3,5-Bis(trifluoromethyl)benzoyl]-5-(4-fluorophenyl)-1,3-oxazolidin-5-yl]ethyl}-2,3-dihydrospiro[indene-1,4′-piperidin]-2-yl]oxy}acetyl)(methyl)amino]propyl}(methyl)carbamoyl]phenyl}-β-alanyl)(methyl)amino]ethyl}piperidin-4-yl biphenyl-2-ylcarbamate] | 0.0431 | 0.0087 | 2 | – | – | – |
| CN(CCN1CCC(OC(=O)Nc2ccccc2-c2ccccc2)CC1)C(=O)CCOCCNc1ccc(C(=O)N(C)CCCN(C)C(=O)CO[C@H]2Cc3ccccc3C23CCN(CC[C@@]2(c4ccc(F)cc4)CN(C(=O)c4cc(C(F)(F)F)cc(C(F)(F)F)c4)CO2)CC3)cc1 [Example 29, 1-{2-[{3-[2-({4-[{3-[({[(2S)-1′-{2-[(5R)-3-[3,5-Bis(trifluoromethyl)benzoyl]-5-(4-fluorophenyl)-1,3-oxazolidin-5-yl]ethyl}-2,3-dihydrospiro[indene-1,4′-piperidin]-2-yl]oxy}acetyl)(methy)amino]propyl}(methyl)carbamoyl]phenyl}amino)ethoxy]propanoyl}(methyl)amino]ethyl}piperidin-4-yl biphenyl-2-ylcarbamate trihydrochloride] | 0.0438 | 0.0292 | 1.7 | – | – | – |
| CN(CCN1CCC(OC(=O)Nc2ccccc2-c2ccccc2)CC1)C(=O)CCCNc1ccc(C(=O)N(C)CCCN(C)C(=O)CO[C@H]2Cc3ccccc3C23CCN(CC[C@@]2(c4ccc(F)cc4)CN(C(=O)c4cc(C(F)(F)F)cc(C(F)(F)F)c4)CO2)CC3)cc1 [Example 34, 1-(2-{[4-({4-[{3-[({[(2S)-1′-{2-[(5R)-3-[3,5-Bis(trifluoromethyl)benzoyl]-5-(4-fluorophenyl)-1,3-oxazolidin-5-yl]ethyl}-2,3-dihydrospiro[indene-1,4′-piperidin]-2-yl]oxy}acetyl)(methyl)amino]propyl}(methyl)carbamoyl]phenyl}amino)butanoyl](methyl)amino}ethyl)piperidin-4-yl biphenyl-2-ylcarbamate trihydrochloride] | 0.03 | 0.0308 | – | 1.5 | – | – |
| CN(CCN1CCC(OC(=O)Nc2ccccc2-c2ccccc2)CC1)C(=O)CCCCCNc1ccc(C(=O)N(C)CCN(C)C(=O)CO[C@H]2Cc3ccccc3C23CCN(CC[C@@]2(c4ccc(F)cc4)CN(C(=O)c4cc(C(F)(F)F)cc(C(F)(F)F)c4)CO2)CC3)cc1 [Example 15, 1-(2-{[6-({4-[{2-[({[(2S)-1-{2-[(5R)-3-[3,5-Bis(trifluoromethyl)benzoyl]-5-(4-fluorophenyl)-1,3-oxazolidin-5-yl]ethyl}-2,3-dihydrospiro[indene-1,4′-piperidin]-2-yl]oxy}acetyl)(methyl)amino]ethyl}(methyl)carbamoyl]phenyl}amino)hexanoyl](methyl)amino}ethyl)piperidin-4-yl biphenyl-2-ylcarbamate] | – | – | 1.2 | – | 0.0377 | 0.0224 |
| CN(CCN1CCC(OC(=O)Nc2ccccc2-c2ccccc2)CC1)C(=O)CCCN(C)c1ccc(C(=O)N(C)CCCN(C)C(=O)CO[C@H]2Cc3ccccc3C23CCN(CC[C@@]2(c4ccc(F)cc4)CN(C(=O)c4cc(C(F)(F)F)cc(C(F)(F)F)c4)CO2)CC3)cc1 [Example 36, 1-{2-[{4-[{4-[{3-[({[(2S)-1′-{2-[(5R)-3-[3,5-Bis(trifluoromethyl)benzoyl]-5-(4-fluorophenyl)-1,3-oxazolidin-5-yl]ethyl}-2,3-dihydrospiro[indene-1,4′-piperidin]-2-yl]oxy}acetyl)(methyl)amino]propyl}(methyl)carbamoyl]phenyl}(methyl)amino]butanoyl}(methyl)amino]ethyl}piperidin-4-yl biphenyl-2-ylcarbamate trihydrochloride] | 0.0168 | 0.0236 | – | 1.8 | – | – |
| CN(CCN1CCC(OC(=O)Nc2ccccc2-c2ccccc2)CC1)C(=O)CCCCCNc1ncc(C(=O)N(C)CCCN(C)C(=O)CO[C@H]2Cc3ccccc3C23CCN(CC[C@@]2(c4ccc(F)cc4)CN(C(=O)c4cc(C(F)(F)F)cc(C(F)(F)F)c4)CO2)CC3)cn1 [Example 14, 1-(2-{[6-({5-[{3-[({[(2S)-1′-{2-[(5R)-3-[3,5-Bis(trifluoromethyl)benzoyl]-5-(4-fluorophenyl)-1,3-oxazolidin-5-yl]ethyl}-2,3-dihydrospiro[indene-1,4′-piperidin]-2-yl]oxy}acetyl)(methyl)amino]propyl}(methyl)carbamoyl]pyrimidin-2-yl}amino)hexanoyl](methyl)amino}ethyl)piperidin-4-yl biphenyl-2-ylcarbamate trihydrochloride] | 0.0284 | 0.0172 | – | 0.93 | – | – |
| CN(CCN1CCC(OC(=O)Nc2ccccc2-c2ccccc2)CC1)C(=O)CCCCCN(C)c1ccc(C(=O)N(C)CCCN(C)C(=O)CO[C@H]2Cc3ccccc3C23CCN(CC[C@@]2(c4ccc(F)cc4)CN(C(=O)c4cc(C(F)(F)F)cc(C(F)(F)F)c4)CO2)CC3)cc1 [Example 76, 1-{2-[{6-[{4-[{3-[({[(2S)-1′-{2-[(5R)-3-[3,5-Bis(trifluoromethyl)benzoyl]-5-(4-fluorophenyl)-1,3-oxazolidin-5-yl]ethyl}-2,3-dihydrospiro[indene-1,4′-piperidin]-2-yl]oxy}acetyl)(methyl)amino]propyl}(methyl)carbamoyl]phenyl}(methyl)amino]hexanoyl}(methyl)amino]ethyl}piperidin-4-yl biphenyl-2-ylcarbamate] | 0.0176 | 0.0622 | 3.4 | – | – | – |
